# In ChEMBL document CHEMBL1151367, “Catharanthus alkaloids. XXXVI. Isolation of vincaleukoblastine (VLB) and periformyline from Catharanthus trichophyllus and pericyclivine from Catharanthus roseus” (1981):
# Tests used:
# [1] = Cytotoxicity against human 9KB cells; type: functional; conditions: read-out: ED50 (the source's name)
# P388 = test: Cytotoxicity against mouse P388 cells; type: functional; conditions: read-out: ED50 (the source's name)
SMILES,EC50 [1],EC50 (P388)
CC[C@]1(O)C[C@@H]2CN(CCc3c([nH]c4ccccc34)[C@@](C(=O)OC)(c3cc4c(cc3OC)N(C)[C@H]3[C@@](O)(C(=O)OC)[C@H](OC(C)=O)[C@]5(CC)C=CCN6CC[C@]43[C@@H]65)C2)C1 [VINBLASTINE],2.4 µg/mL,1.7 µg/mL
CC[C@]12CN3CCc4c([nH]c5ccccc45)[C@@](C(=O)OC)(c4cc5c(cc4OC)N(C)[C@H]4[C@@](O)(C(=O)OC)[C@H](OC(C)=O)[C@]6(CC)C=CCN7CC[C@]54[C@@H]76)C[C@H](C3)[C@H]1O2 [LEUROSINE],2.4 µg/mL,1.7 µg/mL
C/C=C1/CN2CC[C@]34C(=C(C(=O)OC)[C@H]1C[C@H]23)Nc1ccccc14 [AKUAMMICINE],2.4 µg/mL,1.7 µg/mL
